These are literature values, as cited in patent publication US10325677B2, “Apparatus and computerized method for optimizing or generating a sigma profile for a molecule” (Texas Tech University System, priority 2014, dated 2019).

The structures appear in SMILES notation.

The conditions of this series: published in the literature.

For `Cn1c(=O)c2c(ncn2C)n(C)c1=O` [Caffeine, caffeine], the “NRTL-SAC Conceptual Segment Number X” value is recorded as −0.105, the “NRTL-SAC Conceptual Segment Number Y^+” value is 1.211, the “NRTL-SAC Conceptual Segment Number Y^−” value was 0.282 and the “NRTL-SAC Conceptual Segment Number Z” value is on record as 0.211.
